Consider four molecules from patent publication US9403997B2, “Non-VOC neutralizing agents for coatings” (Hercules Incorporated, priority 2012, dated 2016).

The nature of data set [1]: Neutralizing agents tested in paint: viscosity, pH, gloss and yellowing compared to AMP-95 (Table 3). To be noted: for pH (eq): pH of paint; for ICI (eq) / KU (eq): paint viscosity, 23PVC 50-VOC Vinyl Acrylic Semi-Gloss White, HASE thickener. Also noted: KU (eq) / ICI (eq): unit not given here. From the text:
The neutralizing agents shown in Table 2 were further tested in a paint formulation 23[…] Vinyl Acrylic Semi-Gloss White, using a HASE thickener. Gloss measurements, as well as yellowing were compared to AMP-95.

Data set [2] in a line: Formulations of Table 2 tested in paint for gloss and yellowness (Table 4). As to the method:
The formulations shown in Table 2 were tested in 23PVC50-VOC vinyl acrylic (UCAR379G) white and tested for gloss and yellowness.

As to `NCC(=O)O` [Glycine (neutralized w/NaOH), Glycine], in data set [1], the “pH (eq)” value came out at 9.7, the “ICI (eq)” value is on record as 1.023 and the “KU (eq)” value worked out at 94.

Regarding “DL-Aspartic Acid Potassium Salt Hemihydrate”, in data set [1], the “pH (eq)” value was found to be 8.54, the “ICI (eq)” value was 1.046 and the “KU (eq)” value is 90.8.

`CC(C)(N)CO` [AMP-95, 2-amino-2-methyl-1-propanol, reference compound] showed a pH in data set [2] (pH of paint, 23PVC50-VOC vinyl acrylic (UCAR379G) white) of 8.78. Also, in data set [2] (paint viscosity), the “ICI (eq)” value came out at 1.110 and the “KU (eq)” value stood at 95.2. In addition, in data set [1], the “pH (eq)” value was determined as 8.77, the “ICI (eq)” value was 1.110 and the “KU (eq)” value came out at 95.2.

For the molecule `C[C@H](N)C(=O)O` [L-Alanine (neutralized w/NaOH), L-Alanine], in data set [1], the “pH (eq)” value was found to be 8.61, the “ICI (eq)” value turned out to be 1.052 and the “KU (eq)” value is 94.3.
